“Also recorded” adds a separate entry of the source. Non-standard residues stand in square brackets, D forms with d. No end group written: not given here.
Tests used:
PBP4 [1] = assay: X-ray crystallography, ligand soaking of PBP4 crystals; format: binding, Staphylococcus aureus; details: soaking with ampicillin and synthetic pentapeptide stem
PBP4(S75C) [2] = assay: X-ray crystallography, ligand soaking of PBP4(S75C) crystals; format: binding, Staphylococcus aureus; details: soak with 1 mM ampicillin and 8 mM pentapeptide, 40–60 min; 1.86 Å
Description: PBP4(S75C) was crystallized using the sitting drop vapor diffusion method with streak seeding. Protein at 25–35 mg mL^−1 was added to precipitant solution (8 mM zinc chloride, 80 mM sodium acetate pH 5, 100 mM sodium fluoride, and 16% polyethylene glycol 6000) in a 1:1 (v/v) ratio and incubated at 23°C. Immediately after mixing the protein and precipitant solution, the drops were streak-seeded with a housecat whisker that had been swished through a drop containing PBP4(S75C) crystals. […] Crystals were then promptly harvested and stored in liquid nitrogen.
Data collection was performed under cryogenic temperatures (100 K) at the Advanced Light Source synchrotron (U.C. Berkeley) on beamline 5.0.2. Data from one crystal that diffracted to 1.9 Å resolution were processed using Xia2 (Winter et al., [2013]) and XDS (Kabsch, [2010]) with a space group of C121 and merged with Aimless in the CCP4 software package (Winn et al., [2011]). Phaser (McCoy et al., [2007]) was employed to solve the structure by molecular replacement using PDB ID 5TXI as the starting model. The Phenix suite of programs was used for model generation and refinement (Adams et al., [2010]). Briefly, AutoBuild was used with several iterative rounds of manual manipulation of the model with Coot (Emsley et al., [2010]) followed by refinement with Phenix.refine with TLS being used in the later stages of refinement.

[3] = tested on: S. aureus laboratory mutant 27s; details: deletion of PBP4 in mutant 27s; ref Leski and Tomasz, 2005; cited from earlier work
From the text: S. aureus PBP4 is an unusual class C PBP showing TPase activity in vivo (Loskill et al., [2014]; Hamilton et al., [2017]) and in vitro (Qiao et al., [2014]; Srisuknimit et al., [2017]) in addition to its expected CPase activity.

[4] = tested on: ceftobiprole-resistant Staphylococcus aureus strain (CRB); details: pbp4 mutations giving E183A and F241R; ref Banerjee et al., 2010; cited from earlier work
From the text: The replacement of E183 by an alanine disrupts the Van-der-Waals interaction between this residue and ...

PBP4(S75C) [5] = assay: PBP4(S75C) acylation by imipenem, native mass spectrometry; format: binding, Staphylococcus aureus; details: 1.25 mM imipenem, ~23°C, 30 min, pH 6; MS
Description: For mass spectrometry analysis, samples were thawed and diluted 500 times in 5% acetonitrile and 0.1% formic acid. 5 μL of each sample was injected onto a 5-mm C4 column connected to a Waters Xevo GS-2 QTof mass spectrometer via a NanoAquity UPLC system. Samples were eluted in a 2-min gradient from 5 to 100% acetonitrile at a flow rate of 20 μL min^−1. Mass spectra (Supplementary Figure S3) were summed and peak masses deconvoluted using Waters' MassLynx software (V4.1).

PBP4(S75C) [6] = assay: Liquid-state NMR titration (15N-BEST-TROSY chemical shift perturbation); format: binding, Staphylococcus aureus; details: lactoyl-tetrapeptide up to 52 molar equivalents, 326 μM protein; 25°C, 50 mM potassium phosphate pH 6.5
Description: NMR Titration Experiments
Interaction studies with ^15N-labeled PBP4(S75C) and different substrates were monitored by superimposition of ^15N-BEST-TROSY spectra at 25°C for different substrate-to-protein ratio. Synthetic peptide stems and peptidoglycan fragments were extensively dialyzed against water using a Spectra/PorTM dialysis membrane with a 100–500 Da cutoff (Spectrum Laboratories, Inc.) and lyophilized before preparation of a few-mM stock solution in the protein buffer, with 50 mM potassium phosphate at pH 6.5. A 326-μM solution of PBP4(S75C) was titrated with 2, 8, 22, and 52 molar equivalents of tetrapeptide. […] CcpNmr was used to monitor protein chemical shift perturbations (CSP) for every assigned amide resonance by superimposition of the ^15N-BEST-TROSY spectra. CSPs (Δδ) were calculated on a per-residue basis for the highest substrate-to-protein ratio as follows:
where γN and γH are the ^1H and ^15N gyromagnetic ratios, respectively, and δ^XPBP4(S75C):sub , and δ^XPBP4(S75C) are the protein resonance chemical shift value in the presence and absence, respectively, of the substrate at the highest ratio.
The following substrates were added at 25 °C on 150 -µM PBP4(S75C) solution
in 50 mM potassium phosphate buffer, pH 6.5: (A) Tetrapeptide at approximately 52 molar […]
overlapped residues, for which CSPs could not be determined.

PBP4 [7] = details: 10 μM PBP4, 10 mM Tris/HCl pH 7.5, 10 mM MgCl2, 0.1% Triton X-100, 37°C overnight; HPLC
Description: Assays were carried out in a final volume of 50 μL containing 10 mM Tris/HCl at pH 7.5, 10 mM MgCl2, 0.1% Triton X-100, and 10 μM PBP4 or PBP4(S75C). A ~5 mg mL^−1 suspension of PG or 25 μL of a ~5 mg mL^−1 solution of muropeptides were added and the reaction mixture was incubated at 37°C overnight. The enzymatic reaction was stopped by boiling the samples for 10 min. Muropeptides were reduced and analyzed by HPLC as described (Boneca et al., [1997]).

[8] = biological target: 15N-labeled PBP4(S75C) from Staphylococcus aureus, His-tag not cleaved (NMR sample) (S. aureus); assay: NMR titration; 15N-BEST-TROSY spectra at 25°C; 326 μM 15N-labeled PBP4(S75C) titrated with 2, 8, 22 and 52 molar equivalents of unlabeled tetrapeptide; 50 mM potassium phosphate pH 6.5

Molecule: CC1(C)S[C@@H]2[C@H](NC(=O)[C@H](N)c3ccccc3)C(=O)N2[C@H]1C(=O)O [ampicillin]
- electron density of soaked ligand, PBP4 crystals (PBP4 [1]): unable to identify electron density
- electron density of soaked ligand, PBP4(S75C) crystals (PBP4(S75C) [2]): unable to identify electron density

Molecule: CO/N=C(\C(=O)N[C@@H]1C(=O)N2C(C(=O)O)=CCS[C@H]12)c1csc(N)n1 [ceftizoxime]
- susceptibility on deletion of PBP4 [3]: increase in ceftizoxime susceptibility

Molecule: Nc1nc(/C(=N/O)C(=O)N[C@@H]2C(=O)N3C(C(=O)O)=C(/C=C4\CCN([C@@H]5CCNC5)C4=O)CS[C@H]23)ns1 [ceftobiprole]
- resistance of CRB strain [4]: resistant

Molecule: C[C@@H](O)[C@H]1C(=O)N2C(C(=O)O)=C(SCCN=CN)C[C@H]12 [imipenem]
- acylation of PBP4(S75C) (PBP4(S75C) [5]): binds covalently to PBP4S75C, to form a stable acylenzyme; also recorded: sensitive to acylation

Molecule: HO-D-Lac-L-Ala-D-iGln-L-Lys(Gly)5-D-Ala-COOH [lactoyl-tetrapeptide]
- chemical shift perturbations for the amide resonances of PBP4(S75C) (PBP4(S75C) [6]): did not create any significant chemical shift perturbations

Molecule: HO-D-Lac-L-Ala-D-iGln-[L-Lys(Gly)5]-D-Ala-D-Ala-COOH [pentapeptide, synthetic branched lactoyl-peptide resembling the native S. aureus PG stem]
- electron density of soaked ligand, PBP4 crystals (PBP4 [1]): unable to identify electron density
- electron density of soaked ligand, PBP4(S75C) crystals (PBP4(S75C) [2]): unable to identify electron density

Molecule: disaccharide pentapeptide(Gly5) [disaccharide pentapeptide(Gly5) (peak5)]
- DD-CPase activity of PBP4: conversion of monomeric muropeptide (PBP4 [7]): nearly quantitatively converted to disaccharide tetrapeptide(Gly5) (peak A)

B1: HO-D-Lac-L-Ala-D-iGln-L-Lys(Gly)5-D-Ala-COOH tetrapeptide (peptide)
chain 1: {HO‑D‑Lac}-A[diGln]K[dA]-OH
chain 2: GGGGG
modifications: not fully specified (some residues); also: chain 2 (Gly)5 attached to Lys side chain
- Kd [8]: > 110 mM

Reference: paper PMC6346638, “Recognition of Peptidoglycan Fragments by the Transpeptidase PBP4 From Staphylococcus aureus” (Frontiers in Microbiology, 2019)
